Reference: patent US20210070748A1, “INHIBITORS OF BRUTONS TYROSINE KINASE” (Pharmacyclics LLC, priority 2015, published 2021)

Assays:
Assay type in all cases: biochemical
[1] = target: EGFR (Homo sapiens, UniProt P00533); experiment: Inhibition of a panel of kinases, in vitro HotSpot kinase assay: EGFR; details: D-compounds panel data; 1 μM ATP
Description: (§1) The degree of inhibition of a panel of kinases is determined using the in vitro HotSpot kinase assay (purified enzymes, ^33P-ATP, an appropriate substrate and 1 μM ATP).

[2] = target: T1, BTK-WT (Homo sapiens, UniProt Q06187); experiment: Btk in vitro inhibitory activity (one of Method A TR-FRET, Method B electrophoretic mobility shift, Method C radiometric filter binding); details: D-compounds panel data; read-out: IC50 BTK-WT
T1 construct: purified from insect cells as a full-length construct containing an N-terminal 6X-His tag; His6 (N); made in house; host or cells: insect cells (baculovirus Sf21 in Method B)

[3] = target: T2, ITK (Homo sapiens, UniProt Q08881); experiment: Inhibition of a panel of kinases, in vitro HotSpot kinase assay: ITK; details: D-compounds panel data; 1 μM ATP
T2 sequence (Q08881 1-620): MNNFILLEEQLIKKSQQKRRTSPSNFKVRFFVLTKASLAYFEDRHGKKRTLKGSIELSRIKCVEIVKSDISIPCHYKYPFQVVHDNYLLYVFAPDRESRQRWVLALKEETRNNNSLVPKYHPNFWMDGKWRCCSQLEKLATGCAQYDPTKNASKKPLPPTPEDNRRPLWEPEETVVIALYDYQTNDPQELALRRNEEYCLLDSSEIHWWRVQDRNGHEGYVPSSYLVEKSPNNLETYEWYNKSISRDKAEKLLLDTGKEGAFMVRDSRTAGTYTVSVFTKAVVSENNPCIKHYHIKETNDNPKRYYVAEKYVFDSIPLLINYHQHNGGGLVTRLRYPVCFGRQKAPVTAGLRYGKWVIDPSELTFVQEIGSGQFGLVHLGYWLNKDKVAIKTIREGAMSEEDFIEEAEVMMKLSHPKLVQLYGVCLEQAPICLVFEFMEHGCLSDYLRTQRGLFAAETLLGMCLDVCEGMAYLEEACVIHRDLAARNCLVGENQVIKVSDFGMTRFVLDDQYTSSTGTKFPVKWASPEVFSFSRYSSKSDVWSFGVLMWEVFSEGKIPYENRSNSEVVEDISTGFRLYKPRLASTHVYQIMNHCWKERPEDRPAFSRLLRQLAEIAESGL
Description: as §1

[4] = target: LCK (Homo sapiens, UniProt P06239); experiment: Inhibition of a panel of kinases, in vitro HotSpot kinase assay: LCK; details: D-compounds panel data; 1 μM ATP; read-out: IC50 LCK
Chain of LCK (P06239 whole entry): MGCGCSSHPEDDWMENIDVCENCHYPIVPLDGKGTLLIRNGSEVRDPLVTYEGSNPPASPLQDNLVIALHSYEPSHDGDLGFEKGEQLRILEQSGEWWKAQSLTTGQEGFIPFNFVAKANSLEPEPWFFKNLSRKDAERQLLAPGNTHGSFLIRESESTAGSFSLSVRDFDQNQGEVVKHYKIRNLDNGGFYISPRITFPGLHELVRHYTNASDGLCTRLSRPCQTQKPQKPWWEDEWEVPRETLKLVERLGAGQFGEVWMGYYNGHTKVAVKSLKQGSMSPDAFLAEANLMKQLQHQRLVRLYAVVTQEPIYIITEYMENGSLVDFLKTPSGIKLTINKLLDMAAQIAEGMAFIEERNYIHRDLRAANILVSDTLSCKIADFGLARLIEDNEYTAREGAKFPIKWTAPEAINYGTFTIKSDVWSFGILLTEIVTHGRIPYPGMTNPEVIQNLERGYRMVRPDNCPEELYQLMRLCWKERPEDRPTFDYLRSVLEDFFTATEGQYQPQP

T1 sequence (Q06187 whole entry): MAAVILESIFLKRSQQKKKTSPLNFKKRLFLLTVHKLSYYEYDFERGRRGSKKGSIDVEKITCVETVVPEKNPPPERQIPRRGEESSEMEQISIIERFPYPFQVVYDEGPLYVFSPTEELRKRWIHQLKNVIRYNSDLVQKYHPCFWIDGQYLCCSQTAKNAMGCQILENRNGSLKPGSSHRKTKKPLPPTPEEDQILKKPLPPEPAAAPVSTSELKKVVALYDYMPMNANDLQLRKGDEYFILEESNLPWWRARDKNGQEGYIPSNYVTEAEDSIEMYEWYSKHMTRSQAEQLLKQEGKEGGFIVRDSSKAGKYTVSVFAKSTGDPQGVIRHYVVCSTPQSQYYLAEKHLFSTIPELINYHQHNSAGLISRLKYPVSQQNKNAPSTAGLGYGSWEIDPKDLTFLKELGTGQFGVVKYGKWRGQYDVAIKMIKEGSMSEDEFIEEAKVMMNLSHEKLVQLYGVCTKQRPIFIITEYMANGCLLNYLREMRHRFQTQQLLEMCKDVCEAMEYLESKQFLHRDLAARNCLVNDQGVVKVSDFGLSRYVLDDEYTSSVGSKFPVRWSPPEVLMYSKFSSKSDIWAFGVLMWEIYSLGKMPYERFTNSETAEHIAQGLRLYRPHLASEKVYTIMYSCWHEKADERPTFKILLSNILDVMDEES
Chain of EGFR (P00533 25-1210): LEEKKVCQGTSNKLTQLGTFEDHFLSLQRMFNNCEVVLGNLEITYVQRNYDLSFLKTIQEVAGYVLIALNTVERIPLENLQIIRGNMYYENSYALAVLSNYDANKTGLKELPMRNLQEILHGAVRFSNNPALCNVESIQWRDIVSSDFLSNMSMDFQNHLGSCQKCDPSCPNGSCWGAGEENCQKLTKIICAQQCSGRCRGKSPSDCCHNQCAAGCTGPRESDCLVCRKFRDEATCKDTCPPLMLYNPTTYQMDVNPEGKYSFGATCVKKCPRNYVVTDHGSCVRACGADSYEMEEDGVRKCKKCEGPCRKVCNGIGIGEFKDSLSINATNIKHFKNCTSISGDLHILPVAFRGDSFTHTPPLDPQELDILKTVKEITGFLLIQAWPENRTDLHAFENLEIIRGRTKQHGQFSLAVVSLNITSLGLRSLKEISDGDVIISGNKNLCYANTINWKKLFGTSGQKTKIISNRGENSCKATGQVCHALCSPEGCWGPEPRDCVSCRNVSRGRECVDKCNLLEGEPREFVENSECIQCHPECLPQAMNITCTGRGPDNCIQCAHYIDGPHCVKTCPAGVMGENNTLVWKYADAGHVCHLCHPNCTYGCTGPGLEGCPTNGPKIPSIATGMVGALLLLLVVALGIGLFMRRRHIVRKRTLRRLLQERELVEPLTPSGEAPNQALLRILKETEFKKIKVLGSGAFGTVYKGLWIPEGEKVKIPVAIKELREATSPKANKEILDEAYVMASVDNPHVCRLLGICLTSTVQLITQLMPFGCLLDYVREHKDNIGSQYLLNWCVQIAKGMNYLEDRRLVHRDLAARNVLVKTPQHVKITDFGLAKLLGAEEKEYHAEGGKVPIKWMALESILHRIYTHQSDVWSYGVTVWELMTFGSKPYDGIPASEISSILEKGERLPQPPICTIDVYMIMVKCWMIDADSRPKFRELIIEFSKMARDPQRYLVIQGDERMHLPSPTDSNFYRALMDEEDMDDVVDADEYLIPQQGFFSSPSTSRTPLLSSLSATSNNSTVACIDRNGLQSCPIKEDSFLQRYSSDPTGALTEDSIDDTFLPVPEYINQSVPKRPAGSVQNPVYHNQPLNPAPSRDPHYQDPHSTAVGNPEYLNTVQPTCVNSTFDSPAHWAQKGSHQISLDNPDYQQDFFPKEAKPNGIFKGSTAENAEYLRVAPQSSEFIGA

IC50 [1] | IC50 [2] | IC50 [3] | IC50 [4] | SMILES
1000 to 10000 nM | ≤ 10 nM | 100 to 1000 nM | 100 to 1000 nM | CC(C)n1nnc2cc(C(=O)N[C@@H]3CCCN(c4cnc(C(N)=O)c(Nc5cnn(C)c5)n4)[C@@H]3C)ccc21 [Example D-255, N-[(2R,3R)-1-{5-carbamoyl-6-[(1-methyl-i H-pyrazol-4-yl)amino]pyrazin-2-yl}-2-methylpiperidin-3-yl]-1-(propan-2-yl)-1H-1,2,3-benzotriazole-5-carboxamide]
100 to 1000 nM | ≤ 10 nM | 100 to 1000 nM | 100 to 1000 nM | CC(=O)N1CCC(c2ccc(Nc3nc(N4CCC[C@@H](NC(=O)c5ccc(C6CC6)cc5)[C@H]4C)cnc3C(N)=O)cc2)CC1 [Example D-296, 3-{[4-(1-acetylpiperidin-4-yl)phenyl]amino}-5-[(2R,3R)-3-(4-cyclopropylbenzamido)-2-methylpiperidin-1-yl]pyrazine-2-carboxamide]
1000 to 10000 nM | ≤ 10 nM | 100 to 1000 nM | 100 to 1000 nM | C[C@@H]1[C@H](NC(=O)c2ccc(C3CC3)cc2)CCCN1c1cnc(C(N)=O)c(Nc2cnn(CCO)c2)n1 [Example D-281, 5-[(2R,3R)-3-(4-cyclopropylbenzamido)-2-methylpiperidin-1-yl]-3-{[I-(2-hydroxyethyl)-1H-pyrazol-4-yl]amino}pyrazine-2-carboxamide]
100 to 1000 nM | ≤ 10 nM | 10 to 100 nM | 10 to 100 nM | C[C@@H]1[C@H](NC(=O)c2ccc(C3CC3)cc2F)CCCN1c1cnc(C(N)=O)c(Nc2ccc(N3CCNCC3)c(F)c2)n1 [Example D-313, 5-[(2R,3R)-3-(4-cyclopropyl-2-fluorobenzamido)-2-methylpiperidin-1-yl]-3-{[3-fluoro-4-(piperazin-1-yl)phenyl]amino}pyrazine-2-carboxamide]
100 to 1000 nM | ≤ 10 nM | 100 to 1000 nM | 100 to 1000 nM | C[C@@H]1[C@H](NC(=O)c2cc3c(n2C)CC(C)(C)C3)CCCN1c1cnc(C(N)=O)c(Nc2cnn(C)c2)n1 [Example D-19, 3-[(1-methyl-1H-pyrazol-4-yl)amino]-5-[(2R,3R)-2-methyl-3-{1,5,5-trimethyl-1H,4H,5H,6H-cyclopenta[b]pyrrole-2-amido}piperidin-1-yl]pyrazine-2-carboxamide]
100 to 1000 nM | ≤ 10 nM | 10 to 100 nM | 10 to 100 nM | C[C@@H]1[C@H](NC(=O)c2ccc(C3CC3)nc2)CCCN1c1cnc(C(N)=O)c(Nc2ccc(OC3CCN(C)CC3)cc2)n1 [Example D-294, 5-[(2R,3R)-3-(6-cyclopropylpyridine-3-amido)-2-methylpiperidin-1-yl]-3-({4-[(1-methylpiperidin-4-yl)oxy]phenyl}amino)pyrazine-2-carboxamide]
1000 to 10000 nM | ≤ 10 nM | 10 to 100 nM | 10 to 100 nM | C[C@@H]1[C@H](NC(=O)c2ccc(C3CC3)cc2)CCCN1c1cnc(C(N)=O)c(Nc2cc(C3CCN(C4CCCC4)CC3)ns2)n1 [Example D-311, 3-{[3-(1-cyclopentylpiperidin-4-yl)-1,2-thiazol-5-yl]amino}-5-[(2R,3R)-3-(4-cyclopropylbenzamido)-2-methylpiperidin-1-yl]pyrazine-2-carboxamide]
1000 to 10000 nM | ≤ 10 nM | 100 to 1000 nM | 10 to 100 nM | Cc1cc2cc(C(=O)N[C@@H]3CCCN(c4cnc(C(N)=O)c(Nc5cnn(C)c5)n4)[C@@H]3C)ccc2o1 [Example D-246, 3-[(1-methyl-1H-pyrazol-4-yl)amino]-5-[(2R,3R)-2-methyl-3-(2-methyl-1-benzofuran-5-amido)piperidin-1-yl]pyrazine-2-carboxamide]
1000 to 10000 nM | ≤ 10 nM | 10 to 100 nM | 10 to 100 nM | C[C@@H]1[C@H](NC(=O)c2ccc(C3CC3)cc2)CCCN1c1cnc(C(N)=O)c(Nc2cc(C3CCOCC3)ns2)n1 [Example D-310, 5-[(2R,3R)-3-(4-cyclopropylbenzamido)-2-methylpiperidin-1-yl]-3-{[3-(oxan-4-yl)-1,2-thiazol-5-yl]amino}pyrazine-2-carboxamide]
1000 to 10000 nM | ≤ 10 nM | 1000 to 10000 nM | 100 to 1000 nM | C[C@@H]1[C@H](NC(=O)c2ccc(C3CC3)cc2Cl)CCCN1c1cnc(C(N)=O)c(Nc2cnn(C)c2)n1 [Example D-20, 5-[(2R,3R)-3-(2-chloro-4-cyclopropylbenzamido)-2-methylpiperidin-1-yl]-3-[(1-methyl-1H-pyrazol-4-yl)amino]pyrazine-2-carboxamide]
100 to 1000 nM | ≤ 10 nM | 10 to 100 nM | 10 to 100 nM | C[C@@H]1[C@H](NC(=O)c2ccc(C(C)(C)C)cc2)CCCN1c1cnc(C(N)=O)c(Nc2ccc(OC3CCN(C)CC3)cc2)n1 [Example D-291, 5-[(2R,3R)-3-(4-tert-butylbenzamido)-2-methylpiperidin-1-yl]-3-({4-[(1-methylpiperidin-4-yl)oxy]phenyl}amino)pyrazine-2-carboxamide]
1000 to 10000 nM | ≤ 10 nM | 100 to 1000 nM | 100 to 1000 nM | C[C@@H]1[C@H](NC(=O)c2ccc(C3CC3)nc2)CCCN1c1cnc(C(N)=O)c(Nc2ccc(N3CCC(F)(F)CC3)cc2)n1 [Example D-305, 5-[(2R,3R)-3-(6-cyclopropylpyridine-3-amido)-2-methylpiperidin-1-yl]-3-{[4-(4,4-difluoropiperidin-1-yl)phenyl]amino}pyrazine-2-carboxamide]
1000 to 10000 nM | ≤ 10 nM | 100 to 1000 nM | 10 to 100 nM | C[C@@H]1[C@H](NC(=O)c2ccc(N(C)C)cc2)CCCN1c1cnc(C(N)=O)c(Nc2cnn(C)c2)n1 [Example D-24, 5-[(2R,3R)-3-[4-(dimethylamino)benzamido]-2-methylpiperidin-1-yl]-3-[(1-methyl-1H-pyrazol-4-yl)amino]pyrazine-2-carboxamide]
1000 to 10000 nM | ≤ 10 nM | 100 to 1000 nM | 10 to 100 nM | C[C@@H]1[C@H](NC(=O)c2ccc3[nH]cnc3c2)CCCN1c1cnc(C(N)=O)c(Nc2cnn(C)c2)n1 [Example D-262, N-[(2R,3R)-1-{5-carbamoyl-6-[(1-methyl-1H-pyrazol-4-yl)amino]pyrazin-2-yl}-2-methylpiperidin-3-yl]-1H-1,3-benzodiazole-5-carboxamide]
1000 to 10000 nM | ≤ 10 nM | 100 to 1000 nM | 100 to 1000 nM | C[C@@H]1[C@H](NC(=O)c2ccc(C3CC3)cn2)CCCN1c1cnc(C(N)=O)c(Nc2cnn(C)c2)n1 [Example D-21, 5-[(2R,3R)-3-(5-cyclopropylpyridine-2-amido)-2-methylpiperidin-1-yl]-3-[(1-methyl-1H-pyrazol-4-yl)amino]pyrazine-2-carboxamide]
1000 to 10000 nM | ≤ 10 nM | 100 to 1000 nM | 100 to 1000 nM | C[C@@H]1[C@H](NC(=O)c2ccc(C3CC3)c(O)c2)CCCN1c1cnc(C(N)=O)c(Nc2cnn(C)c2)n1 [Example D-245, 5-[(2R,3R)-3-(4-cyclopropyl-3-hydroxybenzamido)-2-methylpiperidin-1-yl]-3-[(1-methyl-1H-pyrazol-4-yl)amino]pyrazine-2-carboxamide]
1000 to 10000 nM | ≤ 10 nM | 100 to 1000 nM | 10 to 100 nM | C[C@@H]1[C@H](NC(=O)c2ccc(C(O)C(F)(F)F)cc2)CCCN1c1cnc(C(N)=O)c(Nc2cnn(C)c2)n1 (single isomer, unassigned) [Example D-249]
100 to 1000 nM | ≤ 10 nM | 100 to 1000 nM | 10 to 100 nM | C[C@@H]1[C@H](NC(=O)c2ccc(C(O)C(F)(F)F)cc2)CCCN1c1cnc(C(N)=O)c(Nc2cnn(C)c2)n1 (single isomer, unassigned) [Example D-250]
1000 to 10000 nM | ≤ 10 nM | 10 to 100 nM | 10 to 100 nM | C[C@@H]1[C@H](NC(=O)c2ccc(C(C)(C)O)cc2)CCCN1c1nnc(C(N)=O)c(Nc2cnn(C)c2)n1 [Example D-298, 3-[(2R,3R)-3-[4-(2-hydroxypropan-2-yl)benzamido]-2-methylpiperidin-1-yl]-5-[(1-methyl-1H-pyrazol-4-yl)amino]-1,2,4-triazine-6-carboxamide]
100 to 1000 nM | ≤ 10 nM | 100 to 1000 nM | 100 to 1000 nM | C[C@@H]1[C@H](NC(=O)c2ccc(C(C)(O)CO)cc2)CCCN1c1cnc(C(N)=O)c(Nc2cnn(C)c2)n1 (single isomer, unassigned) [Example D-265]
